Patent publication US4428806A, “Process for producing brominated 1,3-dioxolen-2-ones” (priority 1981, dated 1984)
Where a name gives a salt, the structure may show the parent alone. Read-outs that look alike come from different tables or passages of the source.

Tests used:
in vitro [1] = assay type: in vitro ADME; details: pH 7.5
Experimental: (§1) 1. Test compounds: A and B above
Each of the test compounds was dissolved in a basic medium (pH 7.5) consisting of 35.8 g of disodium phosphate, 6.0 ml of 10% hydrochloric acid and 2.8 g of pancreatin and 1000 ml of water, and the degree of hydrolysis of each test compound was determined as in the case of the acidic medium.

[2] = Conversion to ampicillin in 40% mouse blood (incubation and bioautography); assay type: in vitro ADME
Experimental: The resulting ampicillin ester hydrochloride was incubated at 37° C. for 10 minutes in 40% mouse blood, and then bioautographed.
The resulting ampicillin (5-phenyl-2-oxo-1,3-dioxolen-4-yl)methyl ester hydrochloride was incubated at 37° C. for […] in 40% mouse blood, and then bioautographed.
The product was incubated and bioautographed in the same way as in Referential Example 1.

in vitro [3] = assay type: in vitro ADME; details: pH 1.2
Experimental: as §1
Each of the test compounds was dissolved in an acidic medium (pH 1.2) consisting of 2.0 g of sodium chloride, 24 ml of 10% hydrochloric acid, 3.2 g of pepsin and 1000 ml of water. The solution was shaken at 37° C., and sampled periodically. The sample was subjected to high-performance liquid chromatography using a reversed phase partition column, and the degree of hydrolysis of each of the test compounds was determined from a decrease in its peak height.

[4] = Blood level in oral administration (ampicillin concentration in serum, bioassay); assay type: in vivo, mice (ddY-strain); details: mice; for Ratio of the concentration of ampicillin in the serum: 50 mg/kg as ampicillin, ratio to ampicillin trihydrate (C = 1.0)
Experimental: Each of the test compounds (as an aqueous solution having a concentration of 5 mg/ml as ampicillin) was orally administered in a dose of 50 mg/kg as ampicillin to four week old mice (ddY-strain, body weight about 20 g, five per group) which were caused to fast overnight. The blood was taken from the mice periodically, and the concentration of ampicillin in the serum was measured by a bioassay method. The blood Ampicillin level ratio was calculated from the following equation. [formula]

Q: Which metabolised at 1 h (in vitro [1]; basic medium with pancreatin) does the source give for `Cc1oc(=O)oc1COC(=O)[C@@H]1N2C(=O)[C@@H](NC(=O)[C@H](N)c3ccccc3)[C@H]2SC1(C)C` [A, Ampicillin (5-methyl-2-oxo-1,3-dioxolen-4-yl) methyl ester hydrochloride] here?
A: Its metabolised at 1 h is 80%.

Q: What about the “Stability in the basic medium (in words)” value (in vitro [1]) of the same compound?
A: The value was “much more stable than the known control compound (B)”.

Q: And the “Conversion to ampicillin in mouse blood” value ([2]; 40% mouse blood, 37° C., 10 minutes)?
A: The value was “completely changed to ampicillin”.

Q: What about the metabolised at 1 h (in vitro [3]; acidic medium with pepsin) of the same compound?
A: Its metabolised at 1 h is 7%.

Q: And the metabolised at 4 h (in vitro [3]; acidic medium with pepsin)?
A: Its metabolised at 4 h is 20%.

Q: What about the “Stability in the acidic medium (in words)” value (in vitro [3]) of the same compound?
A: Its value is “much more stable than the known control compound (B)”.

Q: What about the “Absorption, conversion to ampicillin and blood level (in words)” value ([4]; compared with C and B) of the same compound?
A: The value was “easily absorbed and converted back to the original ampicillin in vivo, and shows a high blood level over a longer period of time than ampicillin (C) and the known ampicillin ester (B)”.

Q: With `CC1(C)S[C@@H]2[C@H](NC(=O)[C@H](N)c3ccccc3)C(=O)N2[C@H]1C(=O)OC1OC(=O)c2ccccc21` (stereo partly drawn) [B, Ampicillin phthalidyl ester hydrochloride] as the compound, how does the metabolised at 20 min (in vitro [1]; basic medium with pancreatin) read?
A: The metabolised at 20 min was 90%.

Q: And the metabolised at 1 h (in vitro [1]; basic medium with pancreatin)?
A: Its metabolised at 1 h is 100%.

Q: And the metabolised at 20 h (in vitro [3]; acidic medium with pepsin)?
A: Its metabolised at 20 h is 100%.

Q: For `CC1(C)S[C@@H]2[C@H](NC(=O)[C@H](N)c3ccccc3)C(=O)N2[C@H]1C(=O)OCc1oc(=O)oc1-c1ccccc1` [Referential Example 2, ampicillin (5-phenyl-2-oxo-1,3-dioxolen-4-yl)methyl ester hydrochloride], which “Conversion to ampicillin in mouse blood” value [2] is on record?
A: Its value is “completely changed to ampicillin”.

Q: Which “Ratio of the concentration of ampicillin in the serum” value (from here on “Ratio”) ([4]; 15 min) does the source give for `CC1(C)S[C@@H]2[C@H](NC(=O)[C@H](N)c3ccccc3)C(=O)N2[C@H]1C(=O)O` [C, Ampicillin trihydrate] here?
A: Its value is 1.0.

Q: What about the “Ratio” value ([4]; 30 min) of the same compound?
A: The value was 1.0.

Q: What about the “Ratio” value ([4]; 60 min) of the same compound?
A: Its value is 1.0.

Q: What about the “Ratio” value ([4]; 90 min) of the same compound?
A: The value was 1.0.

Q: What about the “Ratio” value ([4]; 120 min) of the same compound?
A: Its value is 1.0.

Q: What about the “Ratio” value ([4]; 180 min) of the same compound?
A: The value was 1.0.

Q: With `CC1(C)S[C@@H]2[C@H](NC(=O)[C@H](N)c3ccccc3)C(=O)N2[C@H]1C(=O)OC1CCCc2oc(=O)oc21` (stereo partly drawn) [Referential Example 1, ampicillin (2,3-carbonyldioxy-2-cyclohexenyl) ester hydrochloride] as the compound, how does the “Conversion to ampicillin in mouse blood” value [2] read?
A: Its value is “changed completely to ampicillin”.
